Values after ≈ are worked out from the molar mass of the structure shown.
Key:
Assay type in all cases: cell-based
[1] = test system: Influenza A virus (hanfang359/95); experiment: Determination of anti-influenza virus activity (CPE in MDCK cells); conditions: for IC50: Influenza A virus, MDCK, 36 h; for anti-influenza virus activities compared with the lead compound cajanine: statement in words
HIV-1 III B virus = experiment: Anti-HIV activity assay (P24 antigen in MT-4 cells); conditions: for IC50: Human immunodeficiency virus 1, MT4, 96 h, read-out: HIV IC50; for anti-HIV viral activity: statement in words
HCV = experiment: Anti-hepatitis C virus (HCV) activity assay (HCV RNA in Huh7.5 cells); conditions: for EC50: Hepatitis C virus, Huh7.5, 72 h, read-out: HCV EC50; for anti-HCV viral activity: statement in words
Protocol: Inoculate Huh7.5 cells into 96-well plates to a density of 3×10^4 cells/cm^2, culture for 24h, infect the cells with 45 IU/cell HCV supernatant, meanwhile, add drug solutions or solvent control for treatment.

PC12 cells [2] = experiment: Neuroprotective activity assay, serum-deprived injury to PC12 cells (MTT); conditions: for viability at 10 µM: Rattus norvegicus, PC-12, 48 h, read-out: serum-deprived (surviving PC12 cells, MTT 570 nm)
In short: (§1)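 Survival measured as MTT absorbance at 570 nm after 4 h dye uptake. Compounds (10 μM) were co-applied for 48 h to PC12 cells deprived of serum or exposed to 4 μM rotenone, following 24 h seeding on poly-lysine.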

Coxsackie virus B6 = experiment: Coxsackie virus activity assay (CPE in Vero cells); conditions: for IC50: Vero, read-out: COX-B6 IC50, Vero cells, about 100TCID50, CPE, Reed-Muench
PC12 cells [3] = experiment: Neuroprotective activity assay, rotenone injury to PC12 cells (MTT); conditions: for viability at 10 µM: Rattus norvegicus, PC-12, 48 h, read-out: rotenone (surviving PC12 cells, MTT 570 nm)
In short: as §1

[4] = MT-4 cells, HIV-1 III B 100TCID50, 96 h, P24 antigen
[5] = Huh7.5 cells, 72 h, HCV RNA by RT-PCR, Reed-Muench
[6] = 10 μM test compound, 48 h, Control 100.0 ± 9.2, Model 69.3 ± 4.1
[7] = 10 μM test compound, 4 μM rotenone, 48 h, Control 100.0 ± 8.9, Model 73.2 ± 7.8

| SMILES | IC50 [1] [µg/mL] | IC50 (HIV-1 III B virus; [4]) [µg/mL] | EC50 (HCV; [5]) [µg/mL] | viability at 10 µM (PC12 cells [2]; [6]) [%] | IC50 (Coxsackie virus B6) [µg/mL] | viability at 10 µM (PC12 cells [3]; [7]) [%] | anti-influenza virus activities compared with the lead compound cajanine [1] | anti-HIV viral activity (HIV-1 III B virus) | anti-HCV viral activity (HCV) | protective effect on serum-deprived injury to PC12 cells (PC12 cells [2]; statement in words) | protective effect on rotenone injury to PC12 cells (PC12 cells [3]; statement in words) | Influenza A virus (hanfang359/95) IC50 [1] [µg/mL] | HIV IC50 (HIV-1 III B virus; [4]) [µg/mL] | HCV EC50 (HCV; [5]) [µg/mL] | serum-deprived (surviving PC12 cells, MTT 570 nm) (PC12 cells [2]; [6]) | COX-B6 IC50 (Coxsackie virus B6; Vero cells, about 100TCID50, CPE, Reed-Muench) [µg/mL] | rotenone (surviving PC12 cells, MTT 570 nm) (PC12 cells [3]; [7]) |
| --- | --- | --- | --- | --- | --- | --- | --- | --- | --- | --- | --- | --- | --- | --- | --- | --- | --- |
| COc1c(Cl)c(/C=C/c2ccccc2)cc(O)c1CC=C(C)C [Compound 10s, 2-isopentenyl-3-methoxy-4-chloro-5-[(E)-styryl]phenol] | > 6.17 | 2.75 (≈ 8.36 µM) | 5.17 (≈ 15.7 µM) | 78.5 ± 6.3 | 4.35 (≈ 13.2 µM) | 79.8 ± 3.5 | – | – | – | – | – | – | – | – | – | – | – |
| COc1cc(/C=C/c2ccccc2)c(C(=O)O)c(OC(=O)CN)c1CC=C(C)C [Compound 24b, 2-Aminoacetoxy-3-isopentenyl-4-methoxy-6-[(E)-styryl]benzoic acid] | 4.25 (≈ 10.7 µM) | 2.01 (≈ 5.08 µM) | 1.68 (≈ 4.25 µM) | 89.7 ± 5.6 | 1.24 (≈ 3.14 µM) | 88.3 ± 5.2 | – | – | – | – | – | – | – | – | – | – | – |
| COC(=O)c1c(O)c(CC=C(C)C)c(OC)c(Cl)c1/C=C/c1ccccc1 [Compound 12, methyl 2-hydroxy-3-isopentenyl-4-methoxy-5-chloro-6-[(E)-styryl]benzoate] | 6.17 (≈ 15.9 µM) | 8.17 (≈ 21.1 µM) | 6.87 (≈ 17.8 µM) | 60.2 ± 5.1 | > 6.17 | 74.5 ± 3.2 | – | – | – | – | – | – | – | – | – | – | – |
| COc1cc(/C=C/c2cccc(O)n2)cc(O)c1CC=C(C)C [10g′] | 0.87 (≈ 2.79 µM) | 3.93 (≈ 12.6 µM) | 2.3 (≈ 7.39 µM) | 71 ± 5.2 | 0.12 (≈ 0.385 µM) | 63.5 ± 2.1 | – | – | – | – | – | – | – | – | – | – | – |
| COC(=O)c1c(O)cc(OC)c(CC=C(C)C)c1/C=C/c1ccccc1 [Compound 18, methyl 2-hydroxy-4-methoxy-5-isopentenyl-6-[(E)-styryl]benzoate] | > 18.5 | 0.34 (≈ 0.965 µM) | 8.51 (≈ 24.1 µM) | 77.8 ± 6.3 | > 6.17 | 74.9 ± 2.9 | – | – | – | – | – | – | – | – | – | – | – |
| COc1cc(/C=C/c2ccc(C)cc2)c(C(=O)O)c(O)c1CC=C(C)C [Compound 1g, 2-hydroxy-3-isopentenyl-4-methoxy-6-[(E)-4-methylstyryl]benzoic acid] | > 0.82 | 0.68 (≈ 1.93 µM) | 1.43 (≈ 4.06 µM) | 59.8 ± 11.4 | 4.25 (≈ 12.1 µM) | 77.7 ± 12.9 | – | – | – | – | – | – | – | – | – | – | – |
| COc1cc(/C=C/c2ccccc2)cc(O)c1CC=C(C)C [Compound 10, Cajanine A] | 0.27 (≈ 0.917 µM) | 0.21 (≈ 0.713 µM) | 0.56 (≈ 1.9 µM) | 34.7 ± 9.8 | 0.69 (≈ 2.34 µM) | 69.9 ± 5.8 | significantly stronger than the lead compound cajanine | stronger anti-HIV, HCV viral activities | stronger anti-HIV, HCV viral activities | – | – | – | – | – | – | – | – |
| COc1cc(/C=C/c2cc(O)c(O)c(O)c2)cc(OC)c1 [Compound 21j, 1,3-dimethoxy-5-[(E)-3,4,5-trihydroxystyryl]benzene] | 0.98 (≈ 3.4 µM) | 1.04 (≈ 3.61 µM) | 1.33 (≈ 4.61 µM) | 69.3 ± 2.5 | 1.34 (≈ 4.65 µM) | 75.6 ± 4.6 | – | – | – | – | – | – | – | – | – | – | – |
| COc1cc(/C=C/c2ccccc2)c(C(=O)O)c(OC(=O)C(=O)O)c1CC=C(C)C [Compound 31b, 2-carboxyformyloxy-3-isopentenyl-4-methoxy-6-[(E)-styryl]benzoic acid] | 0.54 (≈ 1.32 µM) | 2.8 (≈ 6.82 µM) | 0.99 (≈ 2.41 µM) | 88.6 ± 2.6 | 1.21 (≈ 2.95 µM) | 80.5 ± 6.4 | significantly stronger than the lead compound cajanine | stronger anti-HIV, HCV viral activities | stronger anti-HIV, HCV viral activities | – | – | – | – | – | – | – | – |
| COc1ccc(/C=C/c2cc(O)c(CC=C(C)C)c(OC)c2)cc1 [Compound 10c, 2-isopentenyl-3-methoxy-5-[(E)-4′-methoxystyryl]phenol] | > 6.17 | 0.35 (≈ 1.08 µM) | 7.17 (≈ 22.1 µM) | 81.6 ± 2.6 | 2.35 (≈ 7.24 µM) | 80.3 ± 6.2 | – | – | – | the strongest activities | the strongest activities | – | – | – | – | – | – |
| COc1cc(/C=C/c2ccncc2)cc(O)c1CC=C(C)C [Compound 10r, 2-isopentenyl-3-methoxy-5-[(E)-(pyrid-4-yl)ethenyl]phenol] | > 0.69 | 1.73 (≈ 5.86 µM) | 1.71 (≈ 5.79 µM) | 68.5 ± 2.4 | 3.23 (≈ 10.9 µM) | 58.4 ± 6.5 | – | – | – | – | – | – | – | – | – | – | – |
| COc1cc(/C=C/c2ccccc2)cc(O)c1CCC(C)C [Compound 10w, 2-isopentyl-3-methoxy-5-[(E)-styryl]phenol] | 0.53 (≈ 1.79 µM) | 0.75 (≈ 2.53 µM) | 2.59 (≈ 8.74 µM) | 79.1 ± 4.6 | 2.45 (≈ 8.27 µM) | 78.2 ± 5.8 | significantly stronger than the lead compound cajanine | – | – | – | – | – | – | – | – | – | – |
| CC/C=C/c1cc(O)c(CC=C(C)C)c(OC)c1 [Compound 10h, 2-isopentenyl-3-methoxy-5-[(E)-buten-1-yl]phenol] | 0.74 (≈ 3 µM) | 0.96 (≈ 3.9 µM) | 0.74 (≈ 3 µM) | 65.8 ± 9.2 | > 2.06 | 67.8 ± 8.5 | – | – | – | – | – | – | – | – | – | – | – |
| CC(C)=CCc1c(O)cc(/C=C/c2ccccc2)c(C(=O)O)c1O [Compound 33, 2,4-dihydroxy-3-isopentenyl-6-[(E)-styryl]benzoic acid] | – | – | – | – | – | – | – | – | – | – | – | 2.35 | 2.01 | 1.55 | 16.8 ± 0.4 | 2.31 | 75.6 ± 2.1 |
| COc1cc(/C=C/c2ccccc2)c(C(=O)Nc2ccc(Cl)cc2)c(O)c1CC=C(C)C [Compound 9h, N-p-chlorophenyl2-hydroxy-3-isopentenyl-4-methoxy-6-[(E)-styryl]benzamide] | 0.47 (≈ 1.05 µM) | 3.38 (≈ 7.55 µM) | 1.33 (≈ 2.97 µM) | 84.5 ± 5.1 | 2.98 (≈ 6.65 µM) | 79.8 ± 2.1 | significantly stronger than the lead compound cajanine | – | – | – | – | – | – | – | – | – | – |
